Earlier results on 45 substances are cited in paper PMC8198792, “Prediction of Anticancer Peptides with High Efficacy and Low Toxicity by Hybrid Model Based on 3D Structure of Peptides” (International Journal of Molecular Sciences, 2021).

Read-outs that look alike come from different tables or passages of the source.

The test system of the data set is cancer cell lines. Set-up: method as in 6 sources, ref CancerPPD [45] and SATPdb ||| ref CancerPPD/SATPdb ||| ref CancerPPD, SATPdb, Swissprot (PDB) ||| ref CancerPPD/SATPdb/Swissprot(PDB) ||| ref CancerPPD / SATPdb ||| ... The settings on record: cited from earlier work. From the text: Supplement ijms-22-05630-s001.zip/ACPs(seguence).xlsx, sheet "D1" | column: Activity || Supplement ijms-22-05630-s001.zip/ACPs(seguence).xlsx, sheet "D2" | column: Activity || Supplement ijms-22-05630-s001.zip/ACPs(seguence).xlsx, sheet "D3" | column: Activity || (+ 2 further places)

[1] abbreviates: ACPs dataset D3 (sheet "D3"), label 1 = ACP, 0 = non-ACP, ref CancerPPD/SATPdb.
Where [2] appears, read: ACPs dataset D4 (sheet "D4"), label 1 = ACP, 0 = non-ACP, ref CancerPPD / SATPdb.
Where [3] appears, read: ACPs dataset D5, sheet "D5", label 1 = ACP, 0 = non-ACP, ref CancerPPD [45] and SATPdb.
The mark [4] stands for this setting: ACPs dataset D1, 1 = ACP (positive), 0 = non-ACP (negative), label taken from databases, ref CancerPPD [45] and SATPdb.
Setting [5] is: ACPs dataset D4 (sheet "D4"), label 1 = ACP, experimentally validated ACPs, ref CancerPPD [45] and SATPdb.
The mark [6] stands for this setting: ACPs dataset D5 (sheet "D5"), label 1 = ACP (positive set), sequences with CancerPPD/SATPdb ID, ref CancerPPD, SATPdb.
Where [7] appears, read: ACPs dataset sheet D2, 1 = ACP (CancerPPD/SATPdb ID), 0 = non-ACP (Swissprot/PDB ID), ref CancerPPD, SATPdb, Swissprot (PDB).
Setting [8] is: ACPs dataset D1, label 1 = ACP, 0 = non-ACP (non-anticancer AMPs from SATPdb), ref CancerPPD/SATPdb.
The mark [9] stands for this setting: ACPs dataset D2 (supplement ACPs(seguence).xlsx, sheet D2), dataset label 1/0 (ACP / non-ACP), entries identified by Swissprot(PDB ID), ref CancerPPD/SATPdb/Swissprot(PDB).
Setting [10] is: ACPs dataset D3 (supplement sheet "D3"), 1 = ACP, 0 = non-ACP, ref CancerPPD [45] and SATPdb.
Where [11] appears, read: ACPs dataset D4 (sheet "D4"), label 1 = ACP (CancerPPD ID), 0 = non-ACP (non-anticancer AMP, SATPdb ID), ref CancerPPD [45] and SATPdb.
[12] abbreviates: ACPs dataset D5 (sheet "D5"), label 1 = ACP (positive set), 0 = non-ACP (negative set), ref CancerPPD [45] and SATPdb.

Consider VOLKfPVOLfP [satpdb14846], for which the Activity is 0 under setting [1], 0 under setting [2] and 0 under setting [3].

With TAWGPCSTTCGLGMATRV [satpdb13892], the Activity reads like this: under setting [4], 1; under setting [5], 1; under setting [6], 1; under setting [7], 1.

Turning to “GASCGETCFTGICFTAGCSCNPWPTCTRN [compound 4369]”, the Activity reads like this: under setting [4], 1; under setting [5], 1; under setting [6], 1; under setting [7], 1.

Regarding ILPLKLPLLPLRR [satpdb14372], the Activity is on record as 0 under setting [1], 0 under setting [2] and 0 under setting [3].

For KWKSFIKKAKTSFLHSAKKF [satpdb14273], the Activity was 0 under setting [1], 0 under setting [2] and 0 under setting [3].

For “GVLDTFKDVAIGVAKGAGTGVLKALLCKLDKSC [satpdb13223]”, the Activity is, setting by setting: under setting [8], 0; under setting [2], 0.

For the substance “GFLDTFKNLALNAAKSAGVSVLNSLSCKLFKTC [satpdb12796]”, the Activity by setting is: under setting [8], 0; under setting [2], 0.

On to “MNQGKIWTVVPPAFGLPLMLGAVAITALLVHAAVLTHTTWYAAFLQGGVKKAA [1IJD X-ray 3.00 A/C/E 1-53]”, for which the Activity runs as follows: under setting [9], 0; under setting [3], 0.

Turning to IDWKKLLDAAKQIL [compound 4438], the Activity runs as follows: under setting [4], 1; under setting [5], 1; under setting [6], 1; under setting [7], 1.

Consider GMWKKILGKLIR [compound 3643], for which the Activity is on record as 1 under setting [10], 1 under setting [11] and 1 under setting [12].

For the substance “SFGLCRLRRGFCARGRCRFPSIPIGRCSRFVQCCRRVW [1UT3 NMR - A 1-38]”, the Activity under setting [9] is recorded as 0 and the Activity under setting [12] is 0.

Regarding “GLFSKFNKKKIKSGLIKIIKTAGKEAGLEALRTGIDVIGCKIKGEC [satpdb11080]”, the Activity under setting [4] is recorded as 0 and the Activity under setting [11] is reported as 0.

Take AKLkAyPLKAKLyP [satpdb12877]: the Activity is, setting by setting: under setting [1], 0; under setting [2], 0; under setting [3], 0.

Consider RPFVEMYSEIPE [satpdb28120], for which the Activity is 1 under setting [4], 1 under setting [5], 1 under setting [6] and 1 under setting [7].

In the case of KGRGKRRREKQRPCDKPRR [satpdb15140], the Activity is, setting by setting: under setting [4], 1; under setting [5], 1; under setting [6], 1; under setting [7], 1.

With GFKDLLKGAAKALVKTVLF [compound 4388], the Activity is 1 under setting [4], 1 under setting [5], 1 under setting [6] and 1 under setting [7].

“GAIKDALKGAAKTVAVELLKKAQCKLEKTC [satpdb13113]”: the Activity is listed as 0 under setting [8] and 0 under setting [2].

As for “KWKSFLKTFKSLKkTVLHTLLkAISS [compound 3766]”, the Activity is 1 under setting [10], 1 under setting [11] and 1 under setting [12].

Consider LTFSDWWKLLAE [compound 5059], for which the Activity under setting [4] is 1, the Activity under setting [5] is recorded as 1, the Activity under setting [6] is reported as 1 and the Activity under setting [7] is 1.

As to “MAKWRCKICGYIYDEDEGDPDNGISPGTKFEDLPDDWVCPLCGAPKSEFERIE [1YK5 X-ray 1.79 A/B/C/D 1-53]”, the Activity reads like this: under setting [9], 0; under setting [3], 0.

For “MRLKKRFKKFFISRKEYEKIEEILDIGLAKAMEETKDDELLTYDEIKELLGDK [3BPQ X-ray 2.20,A/C,1-52]”, the Activity under setting [9] is recorded as 0 and the Activity under setting [3] is given as 0.

As for “KILRGVAKKILRTFLRRISKDILTGKK [compound 3329]”, the Activity by setting is: under setting [10], 1; under setting [11], 1; under setting [12], 1.

For “GSIPACGESCFKGKCYTPGCSCSKYPLCAKN [2GJ0 NMR - A 1-31]”, the Activity is on record as 0 under setting [12] and 0 under setting [7].

Take “MVEPLLDGLVLGLVFATLGGLFYAAYQQYKRPNELGG [4I7Z X-ray 2.80 G 1-37]”: the Activity by setting is: under setting [9], 0; under setting [12], 0.

On to QEPHRHSIFTPQTNPRADLEKN [satpdb11381], for which the Activity under setting [4] is listed as 1, the Activity under setting [5] is reported as 1, the Activity under setting [6] is 1 and the Activity under setting [7] was 1.

Regarding “CTTGPCCRQCKLKPAGTTCWKTSLTSHYCTGKSCDCPLYPG [1MPZ NMR - A 1-41]”, the Activity is listed as 0 under setting [9] and 0 under setting [12].

In the case of “GIFSKFGGKAIKNLFIKGAKNIGKEVGMDVIRTGIDVAGCKIKGEC [satpdb10976]”, the Activity under setting [4] is 0 and the Activity under setting [11] is given as 0.

“RLYRKVYGRLYRKVYGRLYRKVYGRLYRKVYGKKK [satpdb11459]”: the Activity reads like this: under setting [10], 0; under setting [2], 0; under setting [3], 0.

Turning to TEWTACSKSCGMGFSTRV [satpdb28517], the Activity is, setting by setting: under setting [4], 1; under setting [5], 1; under setting [6], 1; under setting [7], 1.

With VVKCSYRLGSPDSQCN [satpdb13432], the Activity by setting is: under setting [8], 0; under setting [2], 0.

As to FVQWFSKFLGRIL [6GS5 NMR - A 1-13], the Activity under setting [12] is 0.

As to NKWKKILGKIIKVVK [compound 3497], the Activity is listed as 1 under setting [10], 1 under setting [11] and 1 under setting [12].

In the case of KWKLF [compound 1209], the Activity runs as follows: under setting [10], 1; under setting [11], 1; under setting [12], 1.

On to “MLELLKSLVFAVIMVPVVMAIILGLIYGLGEVFNIFSGVGKKDQPGQNH [4C48 X-ray 3.30,C,1-49]”, for which the Activity reads like this: under setting [9], 0; under setting [12], 0.

As to GIFGKILGAGKKVLCGLSGLC [satpdb11792], the Activity by setting is: under setting [8], 0; under setting [11], 0.

With FKCRRWQWRMKKLGAPSITCVR [compound 1352], the Activity is given as 1 under setting [4], 1 under setting [5], 1 under setting [6] and 1 under setting [7].

As to “IWLTALKFLG KNLGKHLAKQ QLAKL [6CL3 NMR - A 1-25]”, the Activity reads like this: under setting [12], 0; under setting [7], 0.

On to “MPQLVPFYFMNQLTYGFLLMITLLILFSQFFLPMILRLYVSRLFISKL [6B2Z electron microscopy 3.60,A/L,1-48]”, for which the Activity runs as follows: under setting [9], 0; under setting [12], 0.

Turning to MPTWAWWLFLVLLLALWAPARG [satpdb27488], the Activity runs as follows: under setting [4], 1; under setting [5], 1; under setting [6], 1; under setting [7], 1.

Regarding “GSIPCEGSCVFIPCISAIIGCSCSNKVCYKN [compound 4379]”, the Activity under setting [4] is given as 1, the Activity under setting [5] is recorded as 1, the Activity under setting [6] is 1 and the Activity under setting [7] is on record as 1.

For “GGLRSLGRKILRAWKKYGPIIVPIIRIG [compound 4394]”, the Activity is, setting by setting: under setting [4], 1; under setting [5], 1; under setting [6], 1; under setting [7], 1.

For the substance KGRGKRRRCKQRPSDCPRR [satpdb22253], the Activity under setting [4] is 1, the Activity under setting [5] was 1, the Activity under setting [6] is 1 and the Activity under setting [7] is reported as 1.

For AWKKWAKAWKWAKAKWWAKAA [compound 4482], the Activity under setting [4] is on record as 1, the Activity under setting [5] is given as 1, the Activity under setting [6] was 1 and the Activity under setting [7] is reported as 1.

Take AIGKFLHSAKKFGKAFVGEIMNS [compound 1041]: the Activity is on record as 1 under setting [10], 1 under setting [5] and 1 under setting [6].

For YTMNPRKLFDY [satpdb15978], the Activity runs as follows: under setting [4], 1; under setting [5], 1; under setting [6], 1; under setting [7], 1.
